Each structure is given as a SMILES string.

One series has as its target T1, amyloid beta (Homo sapiens, UniProt P05067).
T1 construct: cleaved by alpha and beta secretases, producing free amyloid beta peptide
The series can be described thus: in vitro formation and breakdown of amyloid beta oligomers, aggregates and fibrils. In kind it is biochemical. The conditions noted are these: approximately. The text has this:
Scyllo-inositol is a natural sugar found in many nutrients, including coconut, carrots, grapes and citrus fruits.
Thus, our target concentration in the CSF (which we assume to be similar to the interstitial fluid in the brain) is approximately 2-5 ugm/ml.

Series [1] deals with mild and moderate AD patients. The series can be described thus: phase 2 study of scyllo-inositol 250 mg BID in mild and moderate AD patients over 78 weeks. Type of series: in vivo, human. The text has this:
The inclusion of mild AD patients with an MMSE score of 20 and 21 was sufficient to mask the efficacy observed in mild AD patients with an MMSE from 22-26.
Scyllo-inositol is a drug that, in oral form, crosses the blood-brain barrier to achieve low mM levels in the blood. […] See McLaurin, J. et. al., J Mol. Biol. (1998): 183-194. […] The population of AD patients in the study was mild to moderate Alzheimer's disease having MMSE of 16-26. […] See Salloway, et al. Neurology 2011; 77:1253-1262.
A randomized, double blind placebo-controlled study phase 2 study explored the safety and efficacy of 250 mg BID administered to mild and moderate AD patients over 78 weeks. One of the primary endpoints used to measure changes in cognition was the Neuropsychological Test Battery (NTB) as well as measuring the levels of biomarkers in the CSF such as Amyloid beta 42 and phosphorylated Tau. The primary analysis compared 250 mg BID […] and placebo (n=82) in mild to moderate patients, and an additional pre-specified analysis was performed in the placebo and treated mild AD patients. […] Similar trends were also observed in other cognition and function tests such CSR-SoB and ADCS-ADL.

A short description of series [2]: scyllo-inositol levels in CSF of AD patients. Type of series: in vivo, human. The conditions noted are these: 250 mg BID.
Series [3] is described as follows: clinical safety review of scyllo-inositol (ELND005) studies. Type of series: in vivo, human. The conditions noted are these: clinical studies of up to 2.5 years. How it is done: In the completed studies, […] have been exposed to at least a single dose of ELND005 (161 unique healthy subjects in Phase 1 studies, 306 unique patients in Phase 2 studies). The 306 Mild and Moderate AD patients were treated with ELND005 doses of up to 2000 mg BID. In the completed Phase 2 studies, the duration of treatment was up to 2.5 years with the 250-mg BID dose. The Phase 2 AD studies provided a total of 370.2 patient-years of exposure at any dose. At the dose of 250 mg BID, there have been a total of 154.8 patient-years of exposure in AD patients.
Of the 161 healthy subjects who received ELND005 in Phase 1 studies, 87 were between the ages of 18 and 54 years (inclusive) and 74 were between ages of 55 and 81 years (inclusive). The dose range was 70 to 7000 mg in single-dose studies and 200 to 3000 mg BID in multiple-dose studies for up to 10 days. Patients with AD were treated with 250 mg BID to 2000 mg BID.

The next series concerns rats. The conditions noted are these: rat, in vivo, 6 months.
Series [4] relates to Alzheimer transgenic mouse model. The conditions noted are these: cited from earlier work.
Series [5] deals with mild and moderate AD patients. The note with it: cited from earlier work.
Another series relates to neurons. The note with it: cited from earlier work.
A further series deals with hippocampal slices. The note with it: infusion in rat brain, toxic amyloid beta oligomers; cited from earlier work.
The conditions of series [6]: nine phase 1 studies; cited from earlier work.
Another series deals with transgenic AD mice. The conditions noted are these: cited from earlier work.
In a further series the test system is animals. The note with it: 20-40 mg/kg/day over 3 to 4 months; cited from earlier work.
For series [7] the following is noted: capsules or different food sources; cited from earlier work.
The conditions of series [8]: cited from earlier work.
Series [9] relates to glutathione reductase and superoxide desmutases. The conditions noted are these: periods of days to weeks; cited from earlier work.

T1 sequence (P05067 672-713 limits assumed): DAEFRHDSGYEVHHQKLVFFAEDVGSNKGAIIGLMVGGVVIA

For `O[C@H]1[C@H](O)[C@@H](O)[C@H](O)[C@@H](O)[C@@H]1O` [scyllo-inositol], at amyloid beta, the “concentration sufficient to prevent formation of oligomers and break down amyloid beta aggregates and fibrils” value was 2-5 ugms/ml. In addition, the “efficacy on cognition and function by MMSE subgroup” value in [1] (mild AD patients with MMSE score of 22-26) is “more pronounced”. Moreover, in series [1] (mild AD patients, 250 mg BID), the NTB score entry was “very strong signal in improvement” and the “parameters measured in the NTB that showed improvement” value is 7 of the 9. In addition, the changes in cognition entry in [1] (mild to moderate patient population, 250 mg BID) is “not statistically significant”. The “average scyllo-inositol levels in CSF” value in [2] stood at 15 µg/mL. Further, the “dose considered safe for long-term use” value in [3] is 250 mg BID. Also, the “dose safe with no observed pathologies” value in the series on rats is “up to 2500 mg/kg/day”. Besides, the “dose safe and no pathologies” value in the series on dogs (dog, in vivo, 12 months) is 300 mg/kg/day. In the series on dogs (dogs, 2000 mg/kg/day for 12 months, skin inflammation, gingivitis and pneumonia), the adverse events entry is “some mild adverse events”. In [4] (10 mg/kg and 30 mg/kg), the “reduction of amyloid beta 42 in the brain” value is reported as 20-30% and the “reduction of number of plaques” value is 25-50%. Moreover, the “cognition in Morris Water maze test” value in [4] (oral treatment) is “comparable to normal animals”. In addition, the “subgroup analysis versus placebo” value in series [5] (MMSE 23-26, 250 mg BID) was “did not achieve statistical significance”. Besides, the “primary endpoints NTB and/or ADCS-ADL versus placebo” value in series [5] (full analysis set, 250 mg BID, 78 weeks, MMSE 16-26) is recorded as “no statistical significance”. Moreover, the “efficacy on NTB, CDR-SoB, ADCS-ADL and ADAS-Cog” value in series [5] (mild and moderate AD patients, overall population) was “failed to show efficacy”. For the same compound, in series [5] (per-protocol sets, 250 mg BID, 78 weeks), the “primary endpoints NTB and ADCS-ADL, preventing decline versus placebo” value is recorded as “no statistically significant different”. Moreover, in the series on neurons, the “amyloid beta binding to neurons and neurotoxicity” value is “prevent amyloid beta binding to neurons and reduced neurotoxicity”. Also, the long term potentiation entry with hippocampal slices is given as “restores long term potentiation”. Further, in series [6], the “blood brain barrier passage” value is on record as “crosses the blood brain barrier” and the “plasma levels versus dose” value is listed as “dose proportional increase”.

On to `O=c1cc(-c2ccc(O)cc2)oc2cc(O)cc(O)c12` [apigenin, 4′,5,7-trihydroxyflavone], for which the “amyloid beta half life” value with transgenic AD mice (Transgenic AD mice, not observed with deleted Aquaporin 4 gene) is “significantly reduced”. The “efficacy dose observed in animal models” value with transgenic AD mice (approximately) was 20 to 40 mg/kg/day. Also, the “increase of clearance of amyloid beta in the brain” value with transgenic AD mice (mouse, in vivo) is recorded as 30-40%. In the series on transgenic AD mice (transgenic AD mice), the “aquaporin channels on perivascular astrocytes” value is “increased the expression and localization”; the cognition entry is reported as “reversed the loss in cognition to normal levels”. Also, the “reduction of amyloid beta 42 burden” value in the series with transgenic AD mice (transgenic mouse model) is on record as 20-30%. For the same compound, the adverse events result with animals is on record as “No adverse events”. In series [7], the adverse events entry is reported as “No signs of adverse events”. For the same compound, in [8], the water solubility entry is recorded as “reduced water solubility”. Also, the “level of apigenin resulting in elevated glutathione reductase and superoxide desmutases” value in series [9] was 3.5-4.5 mgs per day.

The values above are taken from patent US20260076986A1 (priority 2022, published 2026).
